Data published in PubChem BioAssay (NCI).
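All cell lines were grown in 96-well plates and treated with compound for 48 hours. TGI is the concentration that stops growth completely.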

Columns and labels:
Assay in all cases: growth of human tumour cells (NCI), 48 h
BT-549 breast = test system: BT-549 breast
COLO 205 colon = test system: COLO 205 colon
HCT-15 colon = test system: HCT-15 colon
HL-60(TB) leukemia = test system: HL-60(TB) leukemia
HT29 colon = test system: HT29 colon
K-562 leukemia = test system: K-562 leukemia
M14 melanoma = test system: M14 melanoma
MCF7 breast = test system: MCF7 breast
MDA-MB-231 breast = test system: MDA-MB-231 breast
NCI-H460 lung = test system: NCI-H460 lung
OVCAR-5 ovarian = test system: OVCAR-5 ovarian
OVCAR-8 ovarian = test system: OVCAR-8 ovarian
PC-3 prostate = test system: PC-3 prostate
RXF 393 renal = test system: RXF 393 renal
SF-268 CNS = test system: SF-268 CNS
SF-539 CNS = test system: SF-539 CNS
SK-MEL-2 melanoma = test system: SK-MEL-2 melanoma
TK-10 renal = test system: TK-10 renal
U251 CNS = test system: U251 CNS
UACC-62 melanoma = test system: UACC-62 melanoma

Row | Structure (SMILES) | TGI (BT-549 breast) [µM] | TGI (COLO 205 colon) [µM] | TGI (HCT-15 colon) [µM] | TGI (HL-60(TB) leukemia) [µM] | TGI (HT29 colon) [µM] | TGI (K-562 leukemia) [µM] | TGI (M14 melanoma) [µM] | TGI (MCF7 breast) [µM] | TGI (MDA-MB-231 breast) [µM] | TGI (NCI-H460 lung) [µM] | TGI (OVCAR-5 ovarian) [µM] | TGI (OVCAR-8 ovarian) [µM] | TGI (PC-3 prostate) [µM] | TGI (RXF 393 renal) [µM] | TGI (SF-268 CNS) [µM] | TGI (SF-539 CNS) [µM] | TGI (SK-MEL-2 melanoma) [µM] | TGI (TK-10 renal) [µM] | TGI (U251 CNS) [µM] | TGI (UACC-62 melanoma) [µM]
1 | Cc1ccc(/C(O)=C/C(=O)C(=O)/C=C(\O)c2ccc(C)cc2C)c(C)c1 | 3.23 | 3.66 | 4.47 | 0.58 | > 20.8 | 9.58 | 3.27 | 4.33 | 4.83 | 3.47 | 3.88 | 7.63 | 5.64 | 4.22 | 4.02 | 3.56 | 3.65 | 3.45 | 3.49 | 3.38
2 | COc1ccc(Nc2nc(NS(=O)(=O)c3cc(C)c(Cl)cc3S)n[nH]2)cc1 | > 100 | > 100 | > 100 | > 100 | > 100 | > 100 | > 100 | > 100 | > 100 | > 100 | > 100 | > 100 | > 100 | > 100 | > 100 | > 100 | > 100 | > 100 | > 100 | > 100
3 | Nc1c(Cl)ncnc1N[C@@H]1C[C@H]1CO | > 100 | > 100 | > 100 | > 100 | > 100 | > 100 | > 100 | > 100 | > 100 | > 100 | > 100 | > 100 | > 100 | > 100 | > 100 | > 100 | > 100 | > 100 | > 100 | > 100
4 | O=c1oc2ccccc2c(Nc2ccc3c(c2)Oc2ccccc2O3)c1[N+](=O)[O-] | 64.9 | > 100 | > 100 | > 100 | > 100 | > 100 | > 100 | 47.7 | 38.3 | > 100 | > 100 | 37.6 | 32.5 | 34.6 | 48.4 | 36.4 | 34.5 | 40.1 | 30 | 37.1
5 | CCC(C#N)NC(=O)NC(C#N)CC (stereo not given) | > 100 | > 100 | > 100 | > 100 | > 100 | > 100 | > 100 | > 100 | > 100 | > 100 | > 100 | > 100 | > 100 | > 100 | > 100 | > 100 | > 100 | > 100 | > 100 | > 100
6 | COc1ccc(/C=N/N=C(\N)NO)c(O)c1 | > 10 | > 10 | > 10 | > 10 | > 10 | > 10 | > 10 | > 10 | > 10 | > 10 | > 10 | > 10 | > 10 | > 10 | > 10 | > 10 | > 10 | > 10 | > 10 | > 10
7 | Cc1ccc(-c2cc(N)n(-c3nc4c(c(=O)n(C)c(=O)n4C)n3C)n2)cc1 | > 100 | > 100 | > 100 | > 100 | > 100 | > 100 | > 100 | > 100 | > 100 | > 100 | > 100 | > 100 | > 100 | > 100 | > 100 | > 100 | > 100 | > 100 | > 100 | > 100
8 | Nc1cccc(Nc2nc3ccccc3nc2NS(=O)(=O)c2ccccc2)c1 | 44.9 | 29.7 | 74.2 | 46.6 | 62.6 | 76.3 | 71.8 | > 100 | 36 | 71.1 | > 100 | > 100 | 49.7 | 38.7 | > 100 | 45.3 | 31.3 | > 100 | 35.3 | 46.1
9 | CN(C)c1ccc(C2SCC(=O)N2NS(=O)(=O)c2cccc(C(=O)O)c2)cc1 (stereo not given) | > 100 | > 100 | > 100 | > 100 | > 100 | > 100 | > 100 | > 100 | > 100 | > 100 | > 100 | 32.6 | > 100 | > 100 | > 100 | > 100 | > 100 | > 100 | > 100 | > 100
10 | CC(=O)O[C@H]1C#C/C=C\C#CC[C@@H]2C(=O)N[C@@H]12 | > 86.5 | > 100 | > 82 | 33.5 | > 100 | > 100 | > 100 | > 100 | > 100 | 37.6 | > 100 | 73.1 | > 100 | 73.3 | > 70.2 | 5.39 | > 100 | > 100 | > 100 | > 100
11 | O=C(NCCCCCCNCc1cccc2ccccc12)Nc1cccc2ccccc12 | > 100 | > 100 | > 100 | > 100 | > 100 | > 100 | > 100 | > 100 | > 100 | > 100 | > 100 | > 100 | > 100 | > 100 | > 100 | > 100 | > 100 | > 100 | > 100 | > 100
12 | O=c1c2ncn(COCCCl)c2n(-c2ccccc2)c(=S)n1-c1ccccc1 | > 100 | > 100 | > 100 | > 100 | > 100 | > 100 | > 100 | > 100 | > 100 | > 100 | > 100 | > 100 | > 100 | > 100 | > 100 | > 100 | > 100 | > 100 | > 100 | > 100
13 | Cc1ccc2c(=O)cc(-c3cccs3)[nH]c2n1 | > 100 | 25.2 | > 100 | 25.5 | > 70.9 | > 100 | > 100 | > 100 | > 100 | > 100 | > 100 | > 100 | > 95.8 | > 62.6 | > 100 | 33.1 | > 82.7 | > 100 | > 100 | > 100
